According to patent US11103511B2, “Substituted indolo[2,1-b]quinazolines as inhibitors of tryptophan dioxygenase and indoleamine 2,3-dioxygenase 1” (FUDAN UNIVERSITY, priority 2017, dated 2021):

Legend:
[1] = biological target: T1, IDO2 (Homo sapiens, UniProt Q6ZQW0); test: Determination of IDO2 inhibitor type and Ki value; format: biochemical; conditions: [S]/V~[i] map, L-tryptophan 20-40 mM
T1 construct: made in house
T1 sequence (Q6ZQW0 1-407): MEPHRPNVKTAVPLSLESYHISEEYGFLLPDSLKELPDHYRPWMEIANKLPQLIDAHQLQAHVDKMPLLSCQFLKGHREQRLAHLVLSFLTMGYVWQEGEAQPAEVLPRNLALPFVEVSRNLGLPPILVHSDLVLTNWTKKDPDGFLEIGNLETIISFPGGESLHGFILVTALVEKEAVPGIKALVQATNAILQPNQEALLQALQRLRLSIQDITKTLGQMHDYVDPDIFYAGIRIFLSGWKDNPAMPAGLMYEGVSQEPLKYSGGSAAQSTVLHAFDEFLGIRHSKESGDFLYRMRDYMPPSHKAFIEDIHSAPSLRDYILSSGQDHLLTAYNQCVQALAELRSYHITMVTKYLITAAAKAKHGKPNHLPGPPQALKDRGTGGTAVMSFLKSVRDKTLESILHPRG
Protocol: (§1) The nucleotide sequences of IDO1, IDO2, and TDO have been disclosed.
After the mixed solution was in water bath at 37° C. for 5 min, 10 μL of IDO2 (about 1 μM) was added to mixed solution and reacted at 37° C. for 30 min. After the enzymatic reaction was completed, 200 μL of 30% (w/v) trichloroacetic acid was added to terminate the reaction. Then the reaction mixture was heated in 65° C. water bath for 15 min to make the reaction product transform from N-formyl-kynurenine to kynurenine, and centrifuged at […] for 10 min. 100 μL of supernatant was draw and mixed with equal volume of 2‰ (w/v) p-dimethylaminobenzaldehyde in acetic acid completely. […] The inhibitor type was determined by Dixon mapping method (1/v˜[i]); the Ki value of inhibitor was obtained by [S]/V˜[i] map.

[2] = biological target: T2, hTDO (Homo sapiens, UniProt P48775); test: Half effective inhibitory concentration IC50 (cell) of TDO, transfected HEK293 cells; format: cell-based; conditions: HEK293 cells transfected with pcDNA3.1(+)-hTDO, 5 h; NI means of no inhibitory activity; read-out: IC50 Cellular TDO
T2 construct: made in house
Protocol: The nucleotide sequences of IDO1, IDO2, and TDO have been disclosed. The active IDO1, IDO2, and TDO in the Examples are human IDO1, IDO2, and TDO, and can be prepared by conventional molecular cloning methods. HEK293 cell line was cultured in DMEM high-sugar medium containing 10% fetal bovine serum in a 37° C., 5% CO2 incubator. The cells were blown evenly into 6-well plates, and transfected when the cells grew to 80%-90% fusion. The operation was carried out according to the instructions of Lipofectamine 2000 while improved slightly: the serum-containing medium was draw out and the cells were washed twice with PBS, and 1500 μL of serum-free medium was added to each well. […] The cells were cultured in 37° C., 5% CO2 incubator for 4-6 h, and then the medium was changed into DMEM medium containing 10% serum. […] Test compounds (including compounds of the present invention, […] and INCB023460) at different concentration gradients were added and the total volume of each well was supplemented to 200 μl with cell culture medium. After incubated for 5 h, 140 μL of supernatant was taken into another 96-well plate, 10 μL of 30% (w/v) trichloroacetic acid was added, heated at 65° C. for 15 min, and centrifuged at 13800×g for 5 minutes. 100 μL of supernatant was mixed with equal volume of 2‰ (w/v) […] acetic acid solution, the absorbance was measured at 492 nm by microplate reader after fully mixing. The experimental grouping was pcDNA3.1 (+)-hTDO transfected group (experimental group), pcDNA3.1 (+) transfected group (plasmid-empty control group), and non-transfected group (blank control group). Each group had three repeated well. The inhibitory rate was plotted against the inhibitor concentration, and the IC50 value was calculated by modified Karber method, the experimental results were shown in Table 1.

[3] = biological target: T3, IDO1 (Homo sapiens, UniProt P14902); test: Cellular IC50 of IDO1; format: cell-based
Source text: as §1
(§2) The IC50 test of IDO1 can be performed with reference to existing methods in the art, such as the method described in Chinese Patent NO.

[4] = biological target: T1, IDO2; test: Half effective inhibitory concentration IC50 (cell) of IDO2, transfected U87 MG cells; format: cell-based; conditions: U87 MG cells transfected with pcDNA3.1(+)-IDO2, 24 h; read-out: IC50 Cellular IDO2
Protocol: The nucleotide sequences of IDO1, IDO2, and TDO have been disclosed. […] U87 MG cell line (ATCC No.: HTB-14) was cultured in DMEM high-sugar medium containing 10% fetal bovine serum in a 37° C., 5% CO2 incubator. The cells were blown evenly into 6-well plate, and transfected when the cells grew to 80%-90% fusion. […] The cells were cultured in 37° C., 5% CO2 incubator for 6 h, and the medium was changed into DMEM medium containing 10% serum after adherence. […] Test compounds (including compounds of the present invention, […] and D-1-MT) at different concentration gradients were added and the total volume of each well was supplemented to 200 μl with cell culture medium containing L-tryptophan (200 μM of final concentration, sterilized by filtration). After incubated for 24 h, 140 μL of supernatant was taken into another 96-well plate, 10 μL of 30% (w/v) trichloroacetic acid was added, heated at 65° C. for 15 min, and centrifuged at 13800×g for 5 minutes. […] The experimental grouping was pcDNA3.1 (+)-IDO2 transfected group (experimental group), pcDNA3.1 (+) transfected group (empty plasmid control group), and non-transfected group (blank control group). Each group had three repeated well. The inhibitory rate was plotted against the inhibitor concentration, and the IC50 value was calculated by modified Karber method.

[5] = biological target: T2, hTDO; test: Half effective inhibitory concentration IC50 (enzyme level) of TDO; format: biochemical; conditions: pH 7.0, NI means of no inhibitory activity, read-out: IC50 enzymatic TDO
Protocol: The nucleotide sequences of IDO1, IDO2, and TDO have been disclosed. The active IDO1, IDO2, and TDO in the Examples are human IDO1, IDO2, and TDO, and can be prepared by conventional molecular cloning methods.
In a 500 μL of standard detection system, 50 mmol/L potassium phosphate buffer (pH 7.0), 200 μg/mL catalase, 40 mmol/L ascorbic acid, 20 μmol/L methylene blue, substrate L-tryptophan with suitable concentration and hTDO inhibitors to be tested were mixed. After the mixed solution was warmed in water bath at 37° C. for 5 min, hTDO was added to react at 37° C. for 30 min. After the enzymatic reaction was completed, […] (w/v) trichloroacetic acid was added to terminate the reaction. Then the reaction mixture was heated in a 65° C. water bath for 15 min to make the reaction product transform from N-formyl-kynurenine to kynurenine, and centrifuged at […] for 10 min. 100 μL of supernatant was draw and mixed with equal volume of 2‰ (w/v) p-dimethylaminobenzaldehyde in acetic acid completely. The kynurenine can reacted with the solution and turned the mixed solution to yellow, and the absorbance was measured at 492 nm by microplate reader. The inhibitory rate was plotted against the inhibitor concentration, and the IC50 value was calculated by modified Karber method, the experimental results were shown in Table 1.

[6] = biological target: T1, IDO2; test: Half effective inhibitory concentration IC50 (enzyme level) of IDO2; format: biochemical; conditions: human IDO2, pH 7.5, read-out: IC50 enzymatic IDO2
Protocol: After the mixed solution was in water bath at 37° C. for 5 min, IDO2 was added to mixed solution and reacted at 37° C. for 30 min. After the enzymatic reaction was completed, 200 μL of 30% (w/v) trichloroacetic acid was added to terminate the reaction. Then the reaction mixture was heated in a 65° C. water bath for 15 min to make the reaction product transform from N-formyl-kynurenine to kynurenine, and centrifuged at […] for 10 min. 100 μL of supernatant was draw and mixed with equal volume of 2‰ (w/v) p-dimethylaminobenzaldehyde in acetic acid completely.

[7] = biological target: T3, IDO1; test: IC50 (enzyme level) of IDO1; format: biochemical; conditions: read-out: IC50 enzymatic IDO1
Source text: as §1, §2

[8] = biological target: T3, IDO1; test: Ki value of IDO1; format: biochemical
Source text: as §1, §2

[9] = cellular, read-out: IC50 Cellular IDO1

T3 sequence (P14902 whole entry): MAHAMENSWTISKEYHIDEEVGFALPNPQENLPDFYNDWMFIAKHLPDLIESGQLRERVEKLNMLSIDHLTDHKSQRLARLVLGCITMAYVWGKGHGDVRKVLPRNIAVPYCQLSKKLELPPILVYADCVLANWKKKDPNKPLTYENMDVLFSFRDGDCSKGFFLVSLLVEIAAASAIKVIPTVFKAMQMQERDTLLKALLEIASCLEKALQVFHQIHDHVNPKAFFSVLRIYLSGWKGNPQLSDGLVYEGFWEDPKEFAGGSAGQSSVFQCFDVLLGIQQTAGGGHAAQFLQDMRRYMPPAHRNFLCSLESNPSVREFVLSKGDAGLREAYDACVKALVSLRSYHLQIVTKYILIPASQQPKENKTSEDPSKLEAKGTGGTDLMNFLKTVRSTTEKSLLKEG
T2 sequence (P48775 whole entry): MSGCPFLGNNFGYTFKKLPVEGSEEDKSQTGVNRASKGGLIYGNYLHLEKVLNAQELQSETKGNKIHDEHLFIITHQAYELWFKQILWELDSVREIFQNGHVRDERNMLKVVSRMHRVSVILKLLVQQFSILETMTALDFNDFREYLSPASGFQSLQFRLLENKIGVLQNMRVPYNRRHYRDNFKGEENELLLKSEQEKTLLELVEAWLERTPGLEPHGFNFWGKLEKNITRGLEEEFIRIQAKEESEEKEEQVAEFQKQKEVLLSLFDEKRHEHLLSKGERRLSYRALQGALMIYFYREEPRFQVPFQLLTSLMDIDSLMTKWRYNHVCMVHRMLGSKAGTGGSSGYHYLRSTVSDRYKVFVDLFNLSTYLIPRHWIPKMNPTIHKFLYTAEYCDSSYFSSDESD

Structure (SMILES) | Ki [1] [µM] | IC50 [2] [µM] | IC50 [3] [µM] | IC50 [4] [µM] | IC50 [5] [µM] | IC50 [6] [µM] | IC50 [3, 9] [µM] | IC50 [7] [µM] | Ki [8] [µM]
CN1CCN(Cc2ccc3nc4n(c(=O)c3c2)-c2ccc(F)cc2C4=O)CC1 [1a] | 6.32 | 0.093 | 0.022 | 18.7 | 0.76 | 18.4 | – | – | –
O=C1c2cc(F)ccc2-n2c1nc1ccc(CN3CCNCC3)cc1c2=O [1b] | 1.96 | 0.092 | – | 3.58 | 0.87 | 31.4 | – | – | –
CC(C)(C)OC(=O)N1CCN(Cc2ccc3nc4n(c(=O)c3c2)-c2ccc(F)cc2C4=O)CC1 [1c] | 6.11 | 0.067 | 0.133 | 8.05 | 0.45 | 62.6 | – | – | –
CN1CCN(Cc2ccc3nc4n(c(=O)c3c2)-c2ccccc2C4=O)CC1 [1d] | 8.85 | 0.184 | – | 23.3 | 2.41 | 46.9 | 0.177 | – | –
CN(C)Cc1ccc2nc3n(c(=O)c2c1)-c1ccc(F)cc1C3=O [1e] | 4.32 | 0.063 | – | 3.81 | 0.41 | 14 | – | – | –
O=C1c2cc(F)ccc2-n2c1nc1ccc(CN3CCOCC3)cc1c2=O [1f] | 17.5 | 0.071 | – | 16.5 | 0.87 | 39.6 | – | – | –
O=C1c2cc(Cn3cc(-c4ccccc4)nn3)ccc2-n2c1nc1ccccc1c2=O [3a] | – | 0.688 | – | 48.1 | 46.6 | 98 | 0.278 | 45.2 | 103
O=C1c2cc(Cn3cc(-c4ccccc4)nn3)ccc2-n2c1nc1ccc(F)cc1c2=O [3b] | – | 1.37 | – | 50.1 | 81.8 | 99.6 | 0.335 | 50 | 96.3
O=C1c2cc(F)ccc2-n2c1nc1ccc(Cn3cc(-c4ccccc4)nn3)cc1c2=O [3c] | – | 0.197 | – | 41.7 | 40 | 83 | 0.185 | 39.1 | 63.3
Cc1ccc2nc3n(c(=O)c2c1)-c1ccc(Cn2cc(-c4ccccc4)nn2)cc1C3=O [3d, 8-(4-phenyl-1H-1,2,3-triazol-1-methylene) -2-methyltryptanthrin] | – | 1.44 | – | 68.4 | 88.7 | 134 | 0.547 | 82.6 | 98.1
O=C1c2cc(Cn3cc(-c4ccccc4)nn3)ccc2-n2c1nc1ccc(Br)cc1c2=O [3e, 8-(4-phenyl-1H-1,2,3-triazol-1-methylene) -2-bromotryptanthrin] | – | 0.715 | – | 51.2 | 44.6 | 102 | 0.201 | 41.1 | –
O=C1c2cc(Cn3cc(-c4ccccc4)nn3)ccc2-n2c1nc1ccc(Cl)cc1c2=O [3f, 8-(4-phenyl-1H-1,2,3-triazol-1-methylene) -2-chlorotryptanthrin] | – | 0.713 | – | 65.1 | 50.1 | 125 | 0.245 | 42.2 | –
